Data taken from PubChem BioAssay AID1963959 (Molecular Pharmacology Branch, DTP, NCI, 2024).

Tested on: T-47D spheroids with HUVEC/MSC, viability
Assay: Anticancer human tumor T-47D cell line growth inhibition [PI3K];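 note: spheroids exposed to agents for seven days before reading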;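 for viability, T/C: percent of DMSO vehicle control luminescence so 100% = untreated growth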
Settings: for IC50: curve of first compound; for viability, T/C: stronger effect = lower value
Excerpt: Combinatorial screen of targeted agents with the PI3K inhibitors inavolisib, alpelisib, duvelisib, and copanlisib in multi-cell type tumor spheroids
A high-throughput screen of multi-cell type tumor spheroids was designed to identify active combinations of targeted small molecules and PI3K pathway inhibitors. Complex spheroids include a stromal component modeled by human endothelial cells (HUVEC) and fibroblasts modeled by human mesenchymal stem cells (MSCs). The concentration ranges selected for each drug and investigational agent were based upon clinically achievable concentrations if the clinical Cmax of the agent was known.
Compounds. The drugs and investigational agents: inavolisib (NSC800729), alpelisib (NSC765974), duvelisib (NSC772469), copanlisib (NSC816437), ipatasertib (NSC767898), afuresertib (NSC778305), talazoparib (NSC767125), sapanisertib (NSC764658), selumetinib (NSC741078), tovorafenib (DAY101, NSC766906), vemurafenib (NSC761431), ravoxertinib (NSC781343), sotorasib (NSC818433), MRTX1133 (NSC 836407), abemaciclib (NSC 768073), palbociclib (NSC758247), venetoclax (NSC 766270), SY5609 (NSC837396), enzalutamide (NSC755605), and darolutamide (NSC825331), were obtained from the National Cancer Institute (NCI) Developmental Therapeutics Program Chemical Repository. The FDA-approved anticancer drug set is available from the NCI Developmental Therapeutics Program. […] The stock solutions were prepared in dimethyl sulfoxide (DMSO, Sigma-Aldrich, St. Louis, MO, cat. D2650) at 800-fold the tested concentration and stored at -70 degrees C prior to their use. All drugs and investigational agents were tested over a range starting from a high concentration at or near the clinical Cmax and decreasing in half-log increments. If the clinical Cmax for an agent had not been determined, the highest concentration tested was 10 microM.
Cell Culture. All cells were maintained in an incubator at 37 degrees C and 5% CO2 with 95% humidity. The PDC lines were cultured according to standard operating procedures established by the NCI PDMR (https://pdmr.cancer.gov/sops/default.htm). All PDCs were thawed and cultured in Matrigel-coated flasks prepared with a working solution of 1X Ham's F-12 nutrient mix, without supplementation (Invitrogen, Waltham, MA, cat. 11765054), 100 U/mL penicillin-streptomycin (Invitrogen, cat. 15140122), and 2.5% Matrigel (Corning Inc., Corning, NY, cat. 354248) for the first three passages. The 354836-022-R-J1-PDC, 475296-252-R-J1-PDC, and 997726-040-R-J2-PDC lines were cultured in 6A media, which includes advanced DMEM/F-12 (Thermo Fisher Scientific, cat. 12634028), 10 mM HEPES (Thermo Fisher Scientific, cat. 15630080), 1X GlutaMAX supplement (Thermo Fisher Scientific, cat. 35050061), 0.1 mg/mL primocin (InvivoGen, San Diego, CA, cat. ant-pm-2), 10% defined fetal bovine serum, heat inactivated (HyClone Laboratories Inc., Logan, UT, cat. SH30070.03HI), 50% L-WRN conditioned media (ATCC, cat. CRL-3276), 1.25 mM N-Acetyl-L-cysteine (Sigma-Aldrich, cat. A9165), 10 mM nicotinamide (Sigma-Aldrich, cat. N0636), 1X B-27 supplement (Thermo Fisher Scientific, cat. 17504044), 1X N-2 supplement (Thermo Fisher Scientific, cat. 17502048), and 10 microM Y-27632 dihydrochloride (Tocris Bioscience, Bristol, United Kingdom, cat. 1254). The 624824-186-R-J2-PDC line was cultured in 6C/Colon 1B media, which includes all 6A media components plus 50 ng/mL human EGF recombinant protein (Thermo Fisher Scientific, cat. PHG0311). […]

SMILES: Cn1nccc1Nc1nccc(-c2ccn(C(CO)c3ccc(Cl)c(F)c3)c(=O)c2)n1 (centres undefined) + COc1c(OCCCN2CCOCC2)ccc2c3n(c(=NC(=O)c4cnc(N)nc4)nc12)CCN3
- IC50 (second compound 0.00316 µM): > 10000 nM
- IC50 (second compound 0.01 µM): > 10000 nM
- IC50 (second compound 0.0316 µM): > 10000 nM
- IC50 (second compound 0.1 µM): < 31.6 nM
- IC50 (second compound 0.316 µM): < 31.6 nM
- IC50 (second compound 1 µM): < 31.6 nM
- viability, T/C (second compound 0.00316 µM, first compound 0.0316 µM): 107%
- viability, T/C (second compound 0.00316 µM, first compound 0.1 µM): 94%
- viability, T/C (second compound 0.00316 µM, first compound 0.316 µM): 94.2%
- viability, T/C (second compound 0.00316 µM, first compound 1 µM): 102%
- viability, T/C (second compound 0.00316 µM, first compound 3.16 µM): 99.9%
- viability, T/C (second compound 0.00316 µM, first compound 10 µM): 104%
- viability, T/C (second compound 0.01 µM, first compound 0.0316 µM): 104%
- viability, T/C (second compound 0.01 µM, first compound 0.1 µM): 88%
- viability, T/C (second compound 0.01 µM, first compound 0.316 µM): 107%
- viability, T/C (second compound 0.01 µM, first compound 1 µM): 83.6%
- viability, T/C (second compound 0.01 µM, first compound 3.16 µM): 103%
- viability, T/C (second compound 0.01 µM, first compound 10 µM): 86.4%
- viability, T/C (second compound 0.0316 µM, first compound 0.0316 µM): 70%
- viability, T/C (second compound 0.0316 µM, first compound 0.1 µM): 72.3%
- viability, T/C (second compound 0.0316 µM, first compound 0.316 µM): 70.1%
- viability, T/C (second compound 0.0316 µM, first compound 1 µM): 77%
- viability, T/C (second compound 0.0316 µM, first compound 3.16 µM): 67.5%
- viability, T/C (second compound 0.0316 µM, first compound 10 µM): 69.6%
- viability, T/C (second compound 0.1 µM, first compound 0.0316 µM): 40.9%
- viability, T/C (second compound 0.1 µM, first compound 0.1 µM): 39.7%
- viability, T/C (second compound 0.1 µM, first compound 0.316 µM): 38.3%
- viability, T/C (second compound 0.1 µM, first compound 1 µM): 48.5%
- viability, T/C (second compound 0.1 µM, first compound 3.16 µM): 46.6%
- viability, T/C (second compound 0.1 µM, first compound 10 µM): 48.2%
- viability, T/C (second compound 0.316 µM, first compound 0.0316 µM): 20.7%
- viability, T/C (second compound 0.316 µM, first compound 0.1 µM): 20.4%
- viability, T/C (second compound 0.316 µM, first compound 0.316 µM): 17.8%
- viability, T/C (second compound 0.316 µM, first compound 1 µM): 24.5%
- viability, T/C (second compound 0.316 µM, first compound 3.16 µM): 20.7%
- viability, T/C (second compound 0.316 µM, first compound 10 µM): 22.7%
- viability, T/C (second compound 1 µM, first compound 0.0316 µM): 8.45%
- viability, T/C (second compound 1 µM, first compound 0.1 µM): 6.31%
- viability, T/C (second compound 1 µM, first compound 0.316 µM): 9.37%
- viability, T/C (second compound 1 µM, first compound 1 µM): 7.73%
- viability, T/C (second compound 1 µM, first compound 3.16 µM): 9.27%
- viability, T/C (second compound 1 µM, first compound 10 µM): 7.43%

SMILES: Cn1cnc2c(F)c(Nc3ccc(Br)cc3Cl)c(C(=O)NOCCO)cc21 + COc1c(OCCCN2CCOCC2)ccc2c3n(c(=NC(=O)c4cnc(N)nc4)nc12)CCN3
- IC50 (second compound 0.00316 µM): > 3000 nM
- IC50 (second compound 0.01 µM): > 3000 nM
- IC50 (second compound 0.0316 µM): > 3000 nM
- IC50 (second compound 0.1 µM): < 9.49 nM
- IC50 (second compound 0.316 µM): < 9.49 nM
- IC50 (second compound 1 µM): < 9.49 nM
- viability, T/C (second compound 0.00316 µM, first compound 0.00949 µM): 97.1%
- viability, T/C (second compound 0.00316 µM, first compound 0.03 µM): 88.8%
- viability, T/C (second compound 0.00316 µM, first compound 0.0949 µM): 88.3%
- viability, T/C (second compound 0.00316 µM, first compound 0.3 µM): 94.8%
- viability, T/C (second compound 0.00316 µM, first compound 0.949 µM): 92.5%
- viability, T/C (second compound 0.00316 µM, first compound 3 µM): 76.6%
- viability, T/C (second compound 0.01 µM, first compound 0.00949 µM): 89.5%
- viability, T/C (second compound 0.01 µM, first compound 0.03 µM): 77.5%
- viability, T/C (second compound 0.01 µM, first compound 0.0949 µM): 102%
- viability, T/C (second compound 0.01 µM, first compound 0.3 µM): 66%
- viability, T/C (second compound 0.01 µM, first compound 0.949 µM): 85.6%
- viability, T/C (second compound 0.01 µM, first compound 3 µM): 92.9%
- viability, T/C (second compound 0.0316 µM, first compound 0.00949 µM): 64%
- viability, T/C (second compound 0.0316 µM, first compound 0.03 µM): 51.7%
- viability, T/C (second compound 0.0316 µM, first compound 0.0949 µM): 64.6%
- viability, T/C (second compound 0.0316 µM, first compound 0.3 µM): 57.8%
- viability, T/C (second compound 0.0316 µM, first compound 0.949 µM): 71.9%
- viability, T/C (second compound 0.0316 µM, first compound 3 µM): 67.7%
- viability, T/C (second compound 0.1 µM, first compound 0.00949 µM): 41.4%
- viability, T/C (second compound 0.1 µM, first compound 0.03 µM): 34.3%
- viability, T/C (second compound 0.1 µM, first compound 0.0949 µM): 32.9%
- viability, T/C (second compound 0.1 µM, first compound 0.3 µM): 38.7%
- viability, T/C (second compound 0.1 µM, first compound 0.949 µM): 41.5%
- viability, T/C (second compound 0.1 µM, first compound 3 µM): 35.4%
- viability, T/C (second compound 0.316 µM, first compound 0.00949 µM): 12.8%
- viability, T/C (second compound 0.316 µM, first compound 0.03 µM): 16.8%
- viability, T/C (second compound 0.316 µM, first compound 0.0949 µM): 16.7%
- viability, T/C (second compound 0.316 µM, first compound 0.3 µM): 13.7%
- viability, T/C (second compound 0.316 µM, first compound 0.949 µM): 20.4%
- viability, T/C (second compound 0.316 µM, first compound 3 µM): 14.4%
- viability, T/C (second compound 1 µM, first compound 0.00949 µM): 6.16%
- viability, T/C (second compound 1 µM, first compound 0.03 µM): 4.64%
- viability, T/C (second compound 1 µM, first compound 0.0949 µM): 7.54%
- viability, T/C (second compound 1 µM, first compound 0.3 µM): 7.14%
- viability, T/C (second compound 1 µM, first compound 0.949 µM): 7.29%
- viability, T/C (second compound 1 µM, first compound 3 µM): 6.05%
